Experimental data reported in US9796713B2, “Tricyclic compounds as alpha-7 nicotinic acetylcholine receptor ligands” (BRISTOL-MYERS SQUIBB COMPANY, priority 2014, dated 2017).

target: T1, α-7 nicotinic ACh receptor ion channel (Rattus norvegicus, UniProt Q05941); experiment: FLIPR Ca2+-sensitive fluorescence assay of α7 nicotinic acetylcholine receptor channel function (agonist activity) in HEK 293 cells; assay type: cell-based; conditions: Table 1; Ca2+ flux, HEK-293 cells expressing the channel
T1 construct: expressed in transfected cells
T1 sequence (Q05941 23-502): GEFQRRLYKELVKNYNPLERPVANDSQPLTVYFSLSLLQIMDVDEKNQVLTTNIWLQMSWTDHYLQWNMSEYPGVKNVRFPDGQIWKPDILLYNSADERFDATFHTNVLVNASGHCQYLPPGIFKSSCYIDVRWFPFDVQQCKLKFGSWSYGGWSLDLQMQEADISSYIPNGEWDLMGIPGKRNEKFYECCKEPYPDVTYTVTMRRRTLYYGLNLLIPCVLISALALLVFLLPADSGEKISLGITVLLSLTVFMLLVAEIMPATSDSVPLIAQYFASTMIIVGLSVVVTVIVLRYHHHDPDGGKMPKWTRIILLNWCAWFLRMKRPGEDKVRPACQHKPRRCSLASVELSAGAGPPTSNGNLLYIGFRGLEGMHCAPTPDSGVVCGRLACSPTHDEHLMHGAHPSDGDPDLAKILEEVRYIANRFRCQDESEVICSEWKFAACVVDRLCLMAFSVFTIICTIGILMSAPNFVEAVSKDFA
Method: I) α7 Nicotinic Acetycholine Receptor Binding. Membranes were prepared for binding using HEK293 cells stably expressing the rat α7 nicotinic acetycholine receptor (rat α7 nAChR). Cells were homogenized at 4° C. in hypotonic lysis buffer consisting of 10 mM Tris (pH 7.4), 5 mM EDTA and protease inhibitors and centrifuged at 32000×g for 20 minutes. The pellet was washed once in membrane wash buffer consisting of 50 mM Tris (pH 7.4), 1 mM EDTA and protease inhibitors and centrifuged at 32000×g for 20 minutes. This pellet was then resuspended in assay buffer consisting 50 mM KH2PO4 (pH 7.4 at 25° C.), 1 mM EDTA, 0.005% Triton-X 100 and 0.1% (v/v) Sigma Protease Inhibitor Cocktail. Aliquots were then frozen in dry ice/ethanol and kept at −80° C. until the day of the assay. II) A Ca^2+-Sensitive, Fluorescence-Based Assay α-7 for Nicotinic Acetylcholine Receptor Channel Function in Mammalian Cells (“FLIPR”). Summary: Lead compounds are evaluated for agonist activity at α-7, α3β4, α4αβ2, and α1β1δ1ε sub-types of nicotinic ACh receptor ion channels expressed in mammalian HEK 293 cells. Agonist potency and efficacy values are determined from kinetic fluorescence Ca^2+ influx measurements made using a 384 well FLIPR (Fluorescence Image Plate Reader). The utility of fluorescent indicators for measuring changes in intracellular divalent cation concentrations, particularly Ca^2+, for drug discovery endeavors is well documented (Rudiger, R., et al., Nature Reviews, 2003, 4:579-586; Gonzalez J. E., et al., Receptors and Channels, 2002, 8:283-295). In this assay, channel expressing HEK cell lines seeded in 384 well assay plates are loaded with a membrane permeant fluorescent Ca^2+ indicator dye, whose 510 nm green emission signal increases in response to elevation of intracellular Ca^2+ concentration. The basal fluorescence from the cells is monitored in real time, followed by the acute addition of test compounds. If the compound is an agonist at any of the non-selective cation channels, the latter open and allow the movement of extracellular Ca^2+ ions into the cell cytoplasm, where they bind to the Ca^2+ indicator dye, and produce an increase in fluorescence output signal, which is detected by a cooled CCD imaging camera.
Materials and Methods: Reagents: The acetomethoxy (AM) ester of the Ca^2+ indicator dye Fluo-4 was obtained from InVitrogen, (Carlsbad, Calif.). Acetylcholine and all buffer constituents were purchased from Sigma Chemical Company, St. Louis, Mo. G418 and Minimal Essential Medium were purchased from InVitrogen Life Technologies, Carlsbad, Calif. Fetal bovine serum was purchased from (InVitrogen, Carlsbad, Calif.).
Cell Culture: HEK-293 cells were grown in Minimal Essential Medium containing 10% (v/v) fetal bovine serum at 37° C. in a 5% CO2 incubator. HEK-293 cells stably expressing the ion channels were grown in the same medium with the addition of 500 μg/ml G418.
Ca^2+ flux assays of Ca^2+ channels expressed in HEK-293 cells: HEK-293 cells expressing the ion channels of interest were plated in 384 well, black-walled, clear-bottomed, poly-D-lysine coated plates at a density of ˜20,000 cells/well in 20 μl of Minimal Essential Medium containing 10% (v/v) fetal bovine serum and incubated for 2 days at 29° C. in a 5% CO2 incubator. Prior to assay, cells were loaded with the Fluo-4 AM ester. Cell loading was accomplished by removing the culture medium and replacing it with 30 μl/well of the AM ester of the dye (5 μM) mixed with Hanks Balanced Salt Solution (#14175-095) containing 20 mM HEPES, 2.5 mM probenecid, 0.5 mM CaCl2, 1 mM MgCl2 and 10 μM atropine. Dye loading was allowed to proceed for 90 minutes at room temperature at which time the dye loading solution was removed and replaced with 40 μl/well of Hanks buffer. Cells loaded with dye were loaded onto a FLIPR384 (Molecular Devices, Sunnyvale, Calif.). Fluo-4 dye was excited using the 488 nm line of an argon laser. Emission was filtered using a 540+/−30 nm bandpass filter. […]

EC50	Compound
73 nM	O=C(c1n[nH]c2ccccc12)N1C2CC3CCN(C2)CC31 (stereo not shown) [Example 1, (hexahydro-2,6-methanopyrrolo[2,3-c]pyridin-1(2H)-yl)(1H-indazol-3-yl)methanone]
590 nM	O=C(c1n[nH]c2ccc(Cl)cc12)N1C2CC3CCN(C2)CC31 (stereo not shown) [Example 2, (5-chloro-1H-indazol-3-yl)(hexahydro-2,6-methanopyrrolo[2,3-c]pyridin-1(2H)-yl)methanone]
700 nM	O=C(c1n[nH]c2ccc(Br)cc12)N1C2CC3CCN(C2)CC31 (stereo not shown) [Example 3, (5-bromo-1H-indazol-3-yl)(hexahydro-2,6-methanopyrrolo[2,3-c]pyridin-1(2H)-yl)methanone]
57 nM	O=C(c1n[nH]c2cc(Cl)ccc12)N1C2CC3CCN(C2)CC31 (stereo not shown) [Example 7, (6-chloro-1H-indazol-3-yl)(hexahydro-2,6-methanopyrrolo[2,3-c]pyridin-1(2H)-yl)methanone]
260 nM	COc1ccc2c(C(=O)N3C4CC5CCN(C4)CC53)n[nH]c2c1 (stereo not shown) [Example 9, (6-methoxy-1H-indazol-3-yl)(hexahydro-2,6-methanopyrrolo[2,3-c]pyridin-1(2H)-yl)methanone]

The remaining lines, values behind:

Compound	EC50
O=C(c1cc2cccc(Cl)c2s1)N1C2CC3CCN(C2)CC31 (stereo not shown) [Example 4, (7-chlorobenzo[b]thiophen-2-yl)(hexahydro-2,6-methanopyrrolo[2,3-c]pyridin-1(2H)-yl)methanone]	> 100000 nM
O=C(c1cc2ccccc2o1)N1C2CC3CCN(C2)CC31 (stereo not shown) [Example 5, Benzofuran-2-yl(hexahydro-2,6-methanopyrrolo[2,3-c]pyridin-1(2H)-yl)methanone]	> 100000 nM
O=C(c1cc2ccccc2s1)N1C2CC3CCN(C2)CC31 (stereo not shown) [Example 6, Benzo[b]thiophen-2-yl(hexahydro-2,6-methanopyrrolo[2,3-c]pyridin-1(2H)-yl)methanone]	51000 nM
Cn1nc(C(=O)N2C3CC4CCN(C3)CC42)c2ccccc21 (stereo not shown) [Example 8, (Hexahydro-2,6-methanopyrrolo[2,3-c]pyridin-1(2H)-yl)(1-methyl-1H-indazol-3-yl)methanone]	> 100000 nM
COc1ccc2[nH]nc(C(=O)N3C4CC5CCN(C4)CC53)c2c1 (stereo not shown) [Example 10, (5-methoxy-1H-indazol-3-yl)(hexahydro-2,6-methanopyrrolo[2,3-c]pyridin-1(2H)-yl)methanone]	> 100000 nM
O=C(c1nsc2ccccc12)N1C2CC3CCN(C2)CC31 (stereo not shown) [Example 11, Benzo[d]isothiazol-3-yl(hexahydro-2,6-methanopyrrolo[2,3-c]pyridin-1(2H)-yl)methanone]	7100 nM
O=C(c1cc2c(Cl)cccc2s1)N1C2CC3CCN(C2)CC31 (stereo not shown) [Example 12, (4-chlorobenzo[b]thiophen-2-yl)(hexahydro-2,6-methanopyrrolo[2,3-c]pyridin-1(2H)-yl)methanone]	> 100000 nM
O=C(c1ccc(Cl)cc1)N1C2CC3CCN(C2)CC31 (stereo not shown) [Example 13, (4-chlorophenyl)(hexahydro-2,6-methanopyrrolo[2,3-c]pyridin-1(2H)-yl)methanone]	> 100000 nM
Cn1cc(C(=O)N2C3CC4CCN(C3)CC42)c2ccccc21 (stereo not shown) [Example 14, (Hexahydro-2,6-methanopyrrolo[2,3-c]pyridin-1(2H)-yl)(1-methyl-1H-indol-3-yl)methanone]	> 100000 nM
COc1cccc2[nH]nc(C(=O)N3C4CC5CCN(C4)CC53)c12 (stereo not shown) [Example 15, (4-methoxy-1H-indazol-3-yl)(hexahydro-2,6-methanopyrrolo[2,3-c]pyridin-1(2H)-yl)methanone]	> 50000 nM

same assay, conditions: Table 2; Ca2+ flux, HEK-293 cells expressing the channel

EC50	Compound
30 nM	O=C(c1n[nH]c2cc(Cl)ccc12)N1[C@H]2C[C@@H]3CC[N@](C2)C[C@@H]31 [Example 17, (6-chloro-1H-indazol-3-yl)((2S,3aS,6R,7aR)-hexahydro-2,6-methanopyrrolo[2,3-c]pyridin-1(2H)-yl)methanone]
55 nM	O=C(c1n[nH]c2ccccc12)N1[C@H]2C[C@@H]3CC[N@](C2)C[C@@H]31 [Example 18, ((2S,3aS,6R,7aR)-hexahydro-2,6-methanopyrrolo[2,3-c]pyridin-1(2H)-yl)(1H-indazol-3-yl)methanone]
80 nM	O=C(c1n[nH]c2cc(F)ccc12)N1[C@H]2C[C@@H]3CC[N@](C2)C[C@@H]31 [Example 21, (6-fluoro-1H-indazol-3-yl)((2S,3aS,6R,7aR)-hexahydro-2,6-methanopyrrolo[2,3-c]pyridin-1(2H)-yl)methanone]
3600 nM	O=C(c1n[nH]c2c(Cl)cccc12)N1[C@H]2C[C@@H]3CC[N@](C2)C[C@@H]31 [Example 22, (7-Chloro-1H-indazol-3-yl)((2S,3aS,6R,7aR)-hexahydro-2,6-methanopyrrolo[2,3-c]pyridin-1(2H)-yl)methanone]
39 nM	Cc1ccc2c(C(=O)N3[C@H]4C[C@@H]5CC[N@](C4)C[C@@H]53)n[nH]c2c1 [Example 23, (6-methyl-1H-indazol-3-yl)((2S,3aS,6R,7aR)-hexahydro-2,6-methanopyrrolo[2,3-c]pyridin-1(2H)-yl)methanone]

The remaining lines, values behind:

Compound	EC50
O=C(c1cc(-c2ccccc2)[nH]n1)N1[C@H]2C[C@@H]3CC[N@](C2)C[C@@H]31 [Example 19, ((2S,3aS,6R,7aR)-hexahydro-2,6-methanopyrrolo[2,3-c]pyridin-1(2H)-yl)(5-phenyl-1H-pyrazol-3-yl)methanone]	> 100000 nM
O=C(c1cc(C2CC2)[nH]n1)N1[C@H]2C[C@@H]3CC[N@](C2)C[C@@H]31 [Example 20, ((2S,3aS,6R,7aR)-hexahydro-2,6-methanopyrrolo[2,3-c]pyridin-1(2H)-yl)(5-cyclopropyl-1H-pyrazol-3-yl)methanone]	26000 nM
O=C(c1n[nH]c2ncccc12)N1[C@H]2C[C@@H]3CC[N@](C2)C[C@@H]31 [Example 24, ((2S,3aS,6R,7aR)-hexahydro-2,6-methanopyrrolo[2,3-c]pyridin-1(2H)-yl)(1H-pyrazolo[3,4-b]pyridin-3-yl)methanone]	1300 nM

same assay, conditions: Table 3; Ca2+ flux, HEK-293 cells expressing the channel

EC50	Compound
86 nM	O=C(c1n[nH]c2cc(Cl)ccc12)N1[C@@H]2C[C@H]3CC[N@@](C2)C[C@H]31 [Example 16, (6-chloro-1H-indazol-3-yl)((2R,3aR,6S,7aS)-hexahydro-2,6-methanopyrrolo[2,3-c]pyridin-1(2H)-yl)methanone]
430 nM	O=C(c1n[nH]c2cc(F)ccc12)N1[C@@H]2C[C@H]3CC[N@@](C2)C[C@H]31 [Example 26, (6-fluoro-1H-indazol-3-yl)((2R,3aR,6S,7aS)-hexahydro-2,6-methanopyrrolo[2,3-c]pyridin-1(2H)-yl)methanone]
36000 nM	O=C(c1n[nH]c2c(Cl)cccc12)N1[C@@H]2C[C@H]3CC[N@@](C2)C[C@H]31 [Example 28, (7-chloro-1H-indazol-3-yl)((2R,3aR,6S,7aS)-hexahydro-2,6-methanopyrrolo[2,3-c]pyridin-1(2H)-yl)methanone]

Second part, the compound before the results:

Compound	EC50
O=C(c1nccc2ccccc12)N1[C@@H]2C[C@H]3CC[N@@](C2)C[C@H]31 [Example 25, ((2R,3aR,6S,7aS)-hexahydro-2,6-methanopyrrolo[2,3-c]pyridin-1(2H)-yl)(isoquinolin-1-yl)methanone]	45000 nM
O=C(c1cc(C2CC2)[nH]n1)N1[C@@H]2C[C@H]3CC[N@@](C2)C[C@H]31 [Example 27, ((2R,3aR,6S,7aS)-hexahydro-2,6-methanopyrrolo[2,3-c]pyridin-1(2H)-yl)(5-cyclopropyl-1H-pyrazol-3-yl)methanone]	> 100000 nM
